Key:
Format in all cases: physicochemical
[1] = Stability studies of bulk drug, physical mixture and citrate salt on storage
[2] = pH solubility studies (mg of drug dissolved per ml of buffer)
[3] = pH of 0.2% suspension in water: methanol (19:1)

## CC[C@H]1OC(=O)[C@H](C)[C@@H](O[C@H]2C[C@@](C)(OC)[C@@H](O)[C@H](C)O2)[C@H](C)[C@@H](O[C@@H]2O[C@H](C)C[C@H](N(C)C)[C@H]2O)[C@](C)(OC)C[C@@H](C)C(=O)[C@H](C)[C@@H](O)[C@]1(C)O [Clarithromycin, 6-O-methylerythromycinA]
[1]; 40° C. and 75% RH-2 Months
  Stability Studies: change / Degradation of Clarithromycin: No Change/No
[1]; 40° C. and 75% RH-3 Months
  Stability Studies: change / Degradation of Clarithromycin: No Change/No
[1]; 40° C. and 75% RH-4 Months
  Stability Studies: change / Degradation of Clarithromycin: No Change/No
[1]; 40° C. and 75% RH-5 Months
  Stability Studies: change / Degradation of Clarithromycin: No Change/No
[1]; 60° C.-1 month
  Stability Studies: change / Degradation of Clarithromycin: No Change/No
[1]; 60° C.-2 months
  Stability Studies: change / Degradation of Clarithromycin: No Change/No
[1]; 60° C.-3 months
  Stability Studies: change / Degradation of Clarithromycin: No Change/No
[1]; 85° C.-1 day
  Stability Studies: change / Degradation of Clarithromycin: No Change/No
[1]; 85° C.-4 days
  Stability Studies: change / Degradation of Clarithromycin: No Change/No
[1]; 85° C.-7 days
  Stability Studies: change / Degradation of Clarithromycin: No Change/No
[1]; 85°-15 days
  Stability Studies: change / Degradation of Clarithromycin: No Change/No
[1]; RT-3 Months
  Stability Studies: change / Degradation of Clarithromycin: No Change/No
[1]; RT-6 Months
  Stability Studies: change / Degradation of Clarithromycin: No Change/No
[1]; RT-9 Months
  Stability Studies: change / Degradation of Clarithromycin: No Change/No
[1]; RT-12 Months
  Stability Studies: change / Degradation of Clarithromycin: No Change/No
[2]; pH 3.0 (KCl Buffer)
  pH solubility studies (mg of Clarithromycin dissolved per ml of buffer): 2.00 mg/ml
[2]; pH 4.0 (KCl Buffer)
  pH solubility studies (mg of Clarithromycin dissolved per ml of buffer): 0.33 mg/ml
[2]; pH 5.0 (Phosphate Buffer)
  pH solubility studies (mg of Clarithromycin dissolved per ml of buffer): 10.09 mg/ml
[2]; pH 6.0 (Phosphate Buffer)
  pH solubility studies (mg of Clarithromycin dissolved per ml of buffer): 7.46 mg/ml
[2]; pH 7.0 (Phosphate Buffer)
  pH solubility studies (mg of Clarithromycin dissolved per ml of buffer): 2.00 mg/ml
[3]
  pH of 0.2% suspension in water: methanol (19:1): 7.5 to 10.0
